Laboratory results reported in US5385947A, “Octahydrophenanthrene derivatives” (Hoffmann-La Roche Inc., priority 1993, dated 1995).
Where a name gives a salt, the structure may show the parent alone.

Experiments:
mouse = assay: Toxicity (lowest lethal dosage, LLD) in the mouse, p.o.; assay type: in vivo
Source text: (§1) The thus-determined activity of some compounds in accordance with the invention will be evident from the IC50 values set forth in the following Table; moreover, the Table contains data concerning their toxicity (lowest lethal dosage=LLD in the mouse, p.o.).

[1] = target: specific binding sites of dizocilpine ([3H]-MK801) in the rat cortex; assay: 3H-MK801 (dizocilpine) binding test: inhibition of the binding of dizocilpine to the specific binding sites in rat cortex; conditions: 50 percent inhibition of specific binding of dizocilpine
Description: The pharmacological activity of some compounds in accordance with the invention and of rac-cis-4b-(2-amino-ethyl)4b,5,6,7,8,8a,9,10-octahydro-phenanthren-8a-ol was determined in vitro according to the method described in Europ. J. Pharmacol. 135, 261 (1987). According to this method [namely the 3H-MK801 (dizocilpine) binding test] the inhibition of the binding of dizocilpine to the specific binding sites in rat cortex by the respective test substances is determined. The IC50 ("50% inhibiting concentration") is that concentration of the respective test substance which brings about a 50 percent inhibition of the specific binding of dizocilpine to the specific binding sites in the rat cortex.
as §1

Structure (SMILES)	Toxicity LLD (lowest lethal dosage) (mouse) [mg/kg]	IC50 [1] [nM]
CN(C)CC[C@@]12CCCC[C@]1(O)CCc1ccc(Cl)cc12.Cl (single isomer, unassigned) [(-)-cis-3-Chloro-4b-(2-dimethylamino-ethyl)-4b,5,6,7,8,8a,9,10-octahydro-phenanthren-8a-ol hydrochloride]	375	254
Cl.NCC[C@@]12CCCC[C@]1(O)CCc1c(F)cc(Cl)cc12 (racemic) [rac-cis-4b-(2-Amino-ethyl)-3-chloro-1-fluoro-4b,5,6,7,8,8a,9,10-octahydro-phenanthren-8a-ol hydrochloride]	1000	107
Cl.NCC[C@@]12CCCC[C@]1(O)CCc1ccc(Cl)cc12 (racemic) [rac-cis-4b-(2-Amino-ethyl)-3-chloro-4b,5,6,7,8,8a,9,10-octahydro-phenanthren-8a-ol hydrochloride]	500	84.7
Cl.NCC[C@@]12CCCC[C@]1(O)CCc1ccccc12 (racemic) [rac-cis-4b-(2-Amino-ethyl)-4b,5,6,7,8,8a,9,10-octahydro-phenanthren-8a-ol hydrochloride]	250	93
Cl.NCC[C@@]12CCCC[C@]1(O)CCc1ccc(O)cc12 (racemic) [rac-cis-4b-(2-Amino-ethyl)-4b,5,6,7,8,8a,9,10-octahydro-phenanthrene-3,8a-diol hydrochloride]	1000	73.4
CN(C)CC[C@@]12CCCC[C@]1(O)CCc1ccccc12 (racemic) [rac-cis-4b-(2-Dimethylamino-ethyl)-4b,5,6,7,8,8a,9,10-octahydro-phenanthren-8a-ol hydrochloride]		453
